Several values for one entry are separate records, joined by “and”; a condition that tells them apart may be missing. Identical values can stand only once. Entries after “also recorded” stand apart in the source; their conditions may differ.
T1: G-CSF receptor expressed on human monocytes (Homo sapiens, UniProt Q99062)
T1 construct: Both cell lines are known to express the G-CSF-R; host or cells: THP-1 (human monocytic cell line), intact cells
T1 sequence (Q99062 25-836): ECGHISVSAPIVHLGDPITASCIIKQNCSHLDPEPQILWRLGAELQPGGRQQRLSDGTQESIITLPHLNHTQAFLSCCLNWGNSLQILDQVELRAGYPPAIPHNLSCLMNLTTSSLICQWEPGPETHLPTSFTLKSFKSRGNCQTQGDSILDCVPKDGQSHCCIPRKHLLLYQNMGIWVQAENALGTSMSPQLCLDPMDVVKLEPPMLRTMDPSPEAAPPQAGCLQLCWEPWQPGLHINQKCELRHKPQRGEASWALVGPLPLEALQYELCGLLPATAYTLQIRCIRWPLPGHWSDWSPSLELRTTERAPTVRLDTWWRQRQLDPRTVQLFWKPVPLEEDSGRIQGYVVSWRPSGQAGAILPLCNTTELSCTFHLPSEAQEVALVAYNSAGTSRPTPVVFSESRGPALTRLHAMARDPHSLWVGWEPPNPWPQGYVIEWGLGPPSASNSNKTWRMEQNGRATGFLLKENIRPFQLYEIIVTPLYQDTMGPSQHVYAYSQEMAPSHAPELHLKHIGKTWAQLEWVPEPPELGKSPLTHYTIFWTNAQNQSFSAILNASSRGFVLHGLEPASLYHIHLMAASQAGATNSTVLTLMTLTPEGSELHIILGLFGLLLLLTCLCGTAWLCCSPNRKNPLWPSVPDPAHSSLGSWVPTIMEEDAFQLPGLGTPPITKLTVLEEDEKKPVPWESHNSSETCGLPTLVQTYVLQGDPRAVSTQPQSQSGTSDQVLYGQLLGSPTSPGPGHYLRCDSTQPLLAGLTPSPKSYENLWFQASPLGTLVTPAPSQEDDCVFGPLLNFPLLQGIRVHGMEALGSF

T2: G-CSF receptor on monocytic (THP-1) cells (Homo sapiens, UniProt Q99062)
T2 construct: Both cell lines are known to express the G-CSF-R; host or cells: THP-1 (human monocytic cell line), intact cells
T2 sequence (Q99062 25-836): T1 sequence (Q99062 25-836)

T3: G-CSF receptor on neuronal (SH-SY5Y) cells (Homo sapiens, UniProt Q99062)
T3 construct: Both cell lines are known to express the G-CSF-R; host or cells: SH-SY5Y (human neuroblastoma cell line, adherent cells), intact cells
T3 sequence (Q99062 25-836): T1 sequence (Q99062 25-836)

B1: [^125I]-G-CSF: radio-labeled G-CSF (specific activity 46.55 TBq/mmol) purchased from Perkin Elmer (protein)
chain: TPLGPASSLPQSFLLKCLEQVRKIQGDGAALQEKLVSECATYKLCHPEELVLLGHSLGIPWAPLSSCPSQALQLAGCLSQLHSGLFLYQGLLQALEGISPELGPTLDTLQLDVADFATTIWQQMEELGMAPALQPTQGAMPAFASAFQRRAGGVLVASHLQSFLEVSYRVLRHLAQP
modifications: 125I radiolabel (specific activity 46.55 TBq/mmol); labelled residue not stated

Key:
[1] = molecular target: T1, G-CSF receptor expressed on human monocytes; test: Competition/displacement of [125I]-G-CSF from its receptor on monocytes; format: binding; conditions: monocytic cells
Method: Cells, prepared as described above, were incubated in 180 μL of binding medium containing 0.2% BSA, 5 mM MgSO4 and 50 mM Hepes, pH 7.2 at a concentration of 1.5×10^7 cells/mL and the appropriate concentration of [^125I]-G-CSF. This was followed by addition of increasing concentrations of each study compound (10 to 3000 nM). After 2 hrs of incubation, the amount of bound and free [^125I]-G-CSF was determined, as described above. […] Each concentration was analyzed in triplicate and experiments were repeated three times. These experiments were conducted in human monocytic and neuronal cell lines.
Displacement studies were then conducted for each of the 10 compounds. […] Compounds 6 and 10, which displaced greater than 75% of the ^125I-G-CSF, were further studied for their capacity to mimic or block the intracellular signaling triggered by the natural ligand.

[2] = tested on: PKCδVIII and Bcl2 expressed in SH-SY5Y neuronal cells; test: Western blot of PKCδVIII and Bcl2 in SH-SY5Y neuronal cells; format: cell-based, human; conditions: for effect on G-CSF-induced Bcl2 expression / effect on G-CSF-induced PKCδVIII expression / Bcl2 protein expression / PKCδVIII protein expression: SH-SY5Y, 24 h; for effect on G-CSF-induced Bcl2 expression / effect on G-CSF-induced PKCδVIII expression: co-incubation with G-CSF 100 ng/mL; for Bcl2 protein expression / PKCδVIII protein expression: compound alone, three concentrations; for agonist/antagonist profile at the G-CSF receptor: neuronal cell line (SH-SY5Y)
Method: (§1) THP-1 cells or SH-SY5Y cells 3×10^6 cells in 5 mL media in a 25 cm^2 flask were treated with 100 ng/mL G-CSF or three different concentrations of the test drug for 24 h. In addition, a set of flasks were co-incubated with the combination of G-CSF and 3 concentrations of test drug. Whole cell lysates ([…]) were separated on 10% polyacrylamide gel electrophoresis-SDS (PAGE-SDS). Proteins were electrophoretically transferred to nitrocellulose membranes, blocked with 5% nonfat milk prepared on Tris buffered saline containing 0.1% Tween 20, washed and incubated with a polyclonal antibody against either Bcl2 (Cell Signaling, Danvers, Mass.) or PKCδVIII-specific polyclonal antibody (Jiang, K., et al. Biochemistry 2008, 47, 787-797). The house keeping gene GAPDH was used as an internal standard. Following incubation with anti-rabbit IgG-HRP, enhanced chemiluminesence (Pierce™, Thermo Scientific, Walthahm, Mass.) was used for detection and the gels were analyzed using UN-SCAN-IT™ software (Silk Scientific, Inc., Orem, Utah).
(§2) Statistical analysis. Densitometric results from Western blots were analyzed with two-tailed t-tests when only two groups were compared. In other analyses where 3 groups were compared, one-way ANOVA followed by t-tests with Dunnett's corrections for multiple comparisons was utilized. All data was presented as mean±SEM. All statistical analysis of data was done via PRISM4 or PRISM5 statistical analysis software (GraphPad Prism, La Jolla, Calif.). Neurohistologic analyses are performed using ANOVA. All comparisons were considered significant at level of P<0.05.

[3] = tested on: PKCδVIII and Bcl2 expressed in THP-1 monocytic cells; test: Western blot of PKCδVIII and Bcl2 in THP-1 monocytic cells; format: cell-based, human; conditions: for effect on G-CSF-induced Bcl2 expression / effect on G-CSF-induced PKCδVIII expression: THP-1, co-incubation with G-CSF 100 ng/mL; for effect on G-CSF-induced Bcl2 expression / effect on G-CSF-induced PKCδVIII expression / Bcl2 protein expression / PKCδVIII protein expression: 24 h; for Bcl2 protein expression / PKCδVIII protein expression: THP-1, compound alone, three concentrations; for agonist/antagonist profile at the G-CSF receptor: monocytic cell line (THP-1)
Method: as §1, with “In” for “THP-1 cells or SH-SY5Y cells 3×10^6 cells in 5 mL media in a 25 cm^2 flask were treated with 100 ng/mL G-CSF or three different concentrations of the test drug for 24 h. In”
as §2

[4] = molecular target: T2, G-CSF receptor on monocytic (THP-1) cells; test: Saturation binding of [125I]-G-CSF to its receptor on THP-1 cells; conditions: [125I]-G-CSF specific binding
Description: (§3) Two human cell lines were chosen for cell culture studies. One was a human monocyte cell line that is representative of the peripheral immune system, THP-1, which grows in suspension. The other cell line was a human neuroblastoma cell line (SH-SY5Y) which is a mixed cell line although only adherent cells were utilized (Xie, H. R., et al. Chin. Med. J. (Engl) 2010, 123, 1086-92). Both cell lines are known to express the G-CSF-R. Both cell lines were purchased from ATCC (Manassas, Va.). THP-1 cells were cultured in RPMI-1640 medium supplemented with 10% fetal bovine serum (FBS) plus 1% penicillin-streptomycin (ATCC, Manassas, Va.) in a humidified atmosphere of 5% CO2 at 37° C. […]
(§4) Binding of [^125I]-G-CSF was measured using previously described method (Kondo, S., et al. Eur. J. Haematol. 1991, 46, 223-30) with some modifications (Pennington, A., et al. Alzheimer's Disease and Parkinsonism 2013, 3, 121). […] Nonspecific binding of [^125I]-G-CSF was measured by incubations in the presence of a 100-fold molar excess of unlabeled G-CSF. […] Bound and free ligand activities were counted after cutting tubes in two pieces and placing the tips and tops, respectively into separate scintillation vials. […] The specific binding was determined from the amount of bound [^125I]-G-CSF blocked by competition with excess unlabeled G-CSF. […]

[5] = molecular target: T3, G-CSF receptor on neuronal (SH-SY5Y) cells; test: Saturation binding of [125I]-G-CSF to its receptor on SH-SY5Y cells; conditions: [125I]-G-CSF specific binding
Description: as §3, §4

Molecule | IC50 [1] | effect on G-CSF-induced Bcl2 expression [2] | effect on G-CSF-induced PKCδVIII expression [2] | Bcl2 protein expression [2] | PKCδVIII protein expression [2] | agonist/antagonist profile at the G-CSF receptor [2] | effect on G-CSF-induced Bcl2 expression [3] | effect on G-CSF-induced PKCδVIII expression [3] | Bcl2 protein expression [3] | PKCδVIII protein expression [3] | agonist/antagonist profile at the G-CSF receptor [3] | Bmax [4] | Hill Coefficient [4] | Bmax [5] | Hill Coefficient [5]
COc1ccc2[nH]cc(C3NC(N)=Nc4nc5ccccc5n43)c2c1 (centres unmarked) [Compound 6, 4-(5-methoxy-1H-indol-3-yl)-3,4-dihydro-[1,3,5]-triazino-[1,2a]benzimidazol-2-amine] | 13.7 nM | did not change the expression of either Bcl2 or PKCδVIII | did not change the expression of either Bcl2 or PKCδVIII | significantly increased Bcl2 protein expression at the low and intermediate, but not the high concentration; also recorded: at the highest concentration increases PKCδVIII without changing Bcl2 expression | stimulated PKCδVIII protein expression to levels equivalent to G-CSF alone; also recorded: at the highest concentration increases PKCδVIII | did not act as an antagonist of G-CSF action; also recorded: appear to act as agonists at the G-CSF receptor | blocked the increase in Bcl2 and PKCδVIII protein expression | blocked the increase in Bcl2 and PKCδVIII protein expression | increased expression of Bcl2 | but not PKCδVIII at all 3 concentrations | mixed agonist/antagonist |  |  |  | 
NC1=Nc2nc3ccccc3n2C(c2c[nH]nc2-c2cccc([N+](=O)[O-])c2)N1 (centres unmarked) [Compound 10, 4-[3-(3-nitrophenyl)-1H-pyrazol-4-yl]-3,4-dihydro[1,3,5]triazino[1,2-a]-benzimidazol-2-amine] | 2.3 nM | did not block the actions of G-CSF | did not block the actions of G-CSF | increased expression of both PKCδVIII and Bcl2 protein to levels equivalent to G-CSF alone | increased expression of both PKCδVIII and Bcl2 protein to levels equivalent to G-CSF alone | appear to act as agonists at the G-CSF receptor; also recorded: appeared to function as a G-CSF agonist | blocking the effects of G-CSF on Bcl2 expression; also recorded: at the lowest concentration antagonized the effects of G-CSF | did not antagonize the effects on PKCδVIII protein expression; also recorded: at the lowest concentration antagonized the effects of G-CSF | significantly elevating expression of both Bcl2 and PKCδVIII | significantly elevating expression of both Bcl2 and PKCδVIII | mixed agonist/antagonist |  |  |  | 
B1 |  |  |  |  |  |  |  |  |  |  |  | 901 pM | 1.19 | 4826 pM | 2.7 and 2.71

— US10813913B2, “Small molecules that mimic or antagonize actions of granulocyte colony-stimulating-factor (G-CSF)” (UNIVERSITY OF SOUTH FLORIDA, priority 2016, dated 2020)
